The text below walks through data of patent publication US5631401A, “Inhibitors of protein farnesyltransferase and squalene synthase” (Abbott Laboratories, priority 1995, dated 1997).

The target of test [1] is T1, Rat brain protein farnesyltransferase (Rattus norvegicus, UniProt Q02293+Q04631).
T1 construct: The enzyme was purified according to Reiss, Y., et al., Cell, 62: 81-88 (1990), utilizing steps one through three; from tissue; host or cells: rat brain
Nature of the test: In vitro inhibition of protein farnesyltransferase (biotin-lamin substrate, scintillation proximity assay). The test is classed as biochemical. The settings on record: for inhibition at 10 µM: compared to uninhibited control. The method in brief:
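Protein farnesyltransferase isolated from rat brain was purified following steps one through three of the Reiss et al. method, giving a specific activity of about 10 nmol substrate farnesylated/mg enzyme/hour. Activity was measured with a commercial Amersham scintillation proximity assay kit, using biotin-lamin as the acceptor substrate and radioactive farnesyl diphosphate as the donor.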
On the technique in general: SPA uses beads or plates that emit light when radiolabelled molecules are held near them.

Test [2] deals with T2, Rat liver microsomal squalene synthase (Rattus norvegicus, UniProt Q02769).
T2 construct: Rat liver microsomes, the source of enzyme, were prepared; from tissue; host or cells: rat liver microsomes
T2 sequence (Q02769 1-416): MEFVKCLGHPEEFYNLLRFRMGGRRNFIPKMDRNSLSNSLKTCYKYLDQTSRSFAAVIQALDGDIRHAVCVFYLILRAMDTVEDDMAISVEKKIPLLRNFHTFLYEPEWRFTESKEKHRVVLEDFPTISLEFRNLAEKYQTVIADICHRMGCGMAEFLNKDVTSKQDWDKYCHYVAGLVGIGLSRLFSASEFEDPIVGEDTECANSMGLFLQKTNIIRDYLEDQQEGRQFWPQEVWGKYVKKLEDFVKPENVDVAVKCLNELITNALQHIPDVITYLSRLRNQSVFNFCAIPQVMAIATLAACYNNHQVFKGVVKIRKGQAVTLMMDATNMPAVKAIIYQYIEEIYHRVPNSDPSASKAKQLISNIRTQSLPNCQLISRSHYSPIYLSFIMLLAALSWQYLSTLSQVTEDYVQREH
Nature of the test: In vitro inhibition of squalene synthase (rat liver microsomes, 3H-farnesyl diphosphate). The test is classed as biochemical. As to conditions: for inhibition at 1 µM: compared to controls with no test compound; for inhibition at 10 µM: 10 μM (footnote *), read-out: % Inhibition at 10 μM (squalene synthase, values marked *). In general terms: Liver microsomes are vesicles of endoplasmic reticulum, rich in cytochrome P450 enzymes.

A word on the inhibition: it is the relative decrease from the control value, in per cent.

In turn, `CCCN(Cc1ccc(Oc2ccccc2)s1)C(=O)C1C(C(=O)O)C(C(=O)N(CCC)Cc2ccc(Oc3ccccc3)s2)C1C(=O)O` (stereo not drawn) [Example 53, (1α,2β,3β,4α)-1,3-Di[N-propyl-N-(5-phenoxythien-2-ylmethyl)aminocarbonyl]cyclobutane-2,4-dicarboxylic acid] showed an inhibition at 10 µM in test [1] of 69%. Moreover, at 1 µM the inhibition in test [2] was 23%.

With `O=C(O)[C@H]1[C@H](C(=O)N(Cc2ccc(Oc3ccccc3)cc2)C2CCCCC2)[C@H](C(=O)O)[C@H]1C(=O)N(Cc1ccc(Oc2ccccc2)cc1)C1CCCCC1` [Example 98, (1α,2β,3β,4α)-1,3-Di[N-cyclohexyl-N-(4-phenoxybenzyl)aminocarbonyl]cyclobutane-2,4-dicarboxylic acid], in test [1], 10 µM produced 31% inhibition. The compound also returned an inhibition at 1 µM in test [2] of 55%.

As for `O=C(O)[C@H]1[C@H](C(=O)N(Cc2ccccc2)Cc2ccc(Cl)cc2)[C@H](C(=O)O)[C@H]1C(=O)N(Cc1ccccc1)Cc1ccc(Cl)cc1` [Example 34, (1α,2β,3β,4α)-1,3-Di[N-benzyl-N-(4-chlorobenzyl)aminocarbonyl]cyclobutane-2,4-dicarboxylic acid], the inhibition at 10 µM was determined as 40% in test [1] and 29% in test [2].

Turning to `CCCN(Cc1ccc(Oc2ccccc2)cc1)C(=O)[C@H]1[C@H](C(=O)O)[C@H](C(=O)N(Cc2ccccc2)Cc2ccc(Oc3ccccc3)cc2)[C@H]1C(=O)O` (relative stereo) [Example 40, (1α,2β,3β,4α)-1-[N-Propyl-N-(4-phenoxybenzyl)aminocarbonyl]-3-[N-benzyl-N-(4-phenoxybenzyl)aminocarbonyl]cyclobutane-2,4-dicarboxylic acid], the inhibition at 1 µM stood at 94% in test [1] (1 μM (footnote *), read-out: % Inhibition at 1 μM (protein farnesyltransferase, values marked *)) and 49% in test [2].

Consider `C[C@@H](c1ccccc1)N(Cc1ccc(Oc2ccccc2)cc1)C(=O)[C@H]1[C@H](C(=O)O)[C@H](C(=O)N(Cc2ccc(Oc3ccccc3)cc2)[C@@H](C)c2ccccc2)[C@H]1C(=O)O` [Example 87, (1α,2β,3β,4α)-1,3-Di[N-(S)-α-Methylbenzyl-N-(4-phenoxybenzyl)aminocarbonyl]cyclobutane-2,4-dicarboxylic acid], for which at 10 µM the inhibition in test [1] was 86%. In addition, 1 µM produced 76% inhibition in test [2].

On to `CN(Cc1ccc(OCc2ccccc2)cc1)C(=O)[C@H]1[C@H](C(=O)O)[C@H](C(=O)N(C)Cc2ccc(OCc3ccccc3)cc2)[C@H]1C(=O)O` [Example 15, (1α,2β,3β,4α)-1,3-Di[N-methyl-N-(4-benzyloxybenzyl)aminocarbonyl]cyclobutane-2,4-dicarboxylic acid], for which the inhibition at 10 µM in test [1] came to 45%; in test [2], 26%.

The compound `CCCN(Cc1cccc(Oc2ccccc2)c1)C(=O)C1C(C(=O)O)C(C(=O)N(CCC)Cc2cccc(Oc3ccccc3)c2)C1C(=O)O` (stereo not drawn) [Example 51, (1α,2β,3β,4α)-1,3-Di[N-propyl-N-(3-phenoxybenzyl)aminocarbonyl]cyclobutane-2,4-dicarboxylic acid] yielded an inhibition at 10 µM in test [1] of 68%. In test [2], this compound came in with an inhibition at 1 µM of 27%.

Consider `CC(C)=CCC/C(C)=C/CCN(C)C(=O)[C@H]1[C@H](C(=O)O)[C@H](C(=O)N(C)CC/C=C(\C)CCC=C(C)C)[C@H]1C(=O)O` [Example 32, (1α,2β,3β,4α)-1,3-Di[N-methyl-N-(4,8-dimethyl-3,7-nonadienyl)aminocarbonyl]cyclobutane-2,4-dicarboxylic acid], for which the inhibition at 10 µM worked out at 54% in test [1] and 40% in test [2].

The compound `O=C(O)[C@H]1[C@H](C(=O)N(CCc2ccccc2)Cc2ccc(Oc3ccccc3)cc2)[C@H](C(=O)O)[C@H]1C(=O)N(CCc1ccccc1)Cc1ccc(Oc2ccccc2)cc1` [Example 78, (1α,2β,3β,4α)-1,3-Di [N-(4-phenoxybenzyl)-N-phenethylaminocarbonyl]cyclobutane-2,4-dicarboxylicacid] returned an inhibition at 10 µM in test [1] of 83%. In test [2], this compound returned an inhibition at 1 µM of 32%.

In test [1], `CCSCCN(Cc1ccc(Oc2ccccc2)cc1)C(=O)C1C(C(=O)O)C(C(=O)N(CCSCC)Cc2ccc(Oc3ccccc3)cc2)C1C(=O)O` (stereo not drawn) [Example 70, (1α,2β,3β,4α)-1,3-Di[N-(2-ethylthioethyl)-N-(4-phenoxybenzyl)aminocarbonyl]cyclobutane-2,4-dicarboxylic acid] displayed an inhibition at 10 µM of 77%. For the same compound, in test [2], 1 µM produced 76% inhibition.
